Data reported in patent publication US9388136B2, “Tert-butyl N-[2-{4-[6-amino-5-(2,4-difluorobenzoyl)-2-oxopyridin-1(2H)-yl]-3,5-difluorophenyl}ethyl]-L-alaninate or a salt, hydrate or solvate thereof” (Chroma Therapeutics Ltd., priority 2012, dated 2016).
Read-outs that look alike come from different tables or passages of the source.

How the values were obtained:
p38 MAP Kinase a = p38 MAP Kinase a (Homo sapiens (Human), UniProt Q16539); experiment: p38 MAP kinase enzyme assay (radiometric filter-binding); type: biochemical
Protocol: The ability of compounds to inhibit p38 MAP a Kinase activity was measured in an assay performed by Upstate (Dundee UK). In a final reaction volume of 25 μL, p38 MAP Kinase a (5-10 mU) is incubated with 25 mM Tris pH 7.5, 0.002 mMEGTA, 0.33 mg/mL myelin basic protein, 10 mM MgAcetate and [g-33p-ATP] (specific activity approx. 500 cpm/pmol, concentration as required). The reaction is initiated by the addition of the MgATP mix. After incubation for 40 minutes at room temperature, the reaction is stopped by the addition of 5 μL of a 3% phosphoric acid solution. 10 μL of the reaction is then spotted onto a P30 filtermat and washed three times for 5 minutes in 75 mM phosphoric acid and once in methanol prior to drying and scintillation counting.
Duplicate data points are generated from a 1/3 log dilution series of a stock solution in DMSO. Nine dilutions steps are made from a top concentration of 10 μM, and a ‘no compound’ blank is included. The standard radiometric filter-binding assay is performed at an ATP concentration at, or close to, the Km. Data from scintillation counts are collected and subjected to free-fit analysis by Prism software.

THP-1 cells = experiment: LPS-stimulation of THP-1 cells, TNF-α levels by ELISA; type: cell-based; details: Homo sapiens, THP-1; LPS 1 μg/ml, 6 hrs; read-out: C—ester TNF-alpha inhibition (THP-1 cells), IC50
Protocol: THP-1 cells were plated in 100 μl at a density of 4×10^4 cells/well in V-bottomed 96 well tissue culture treated plates and incubated at 37° C. in 5% CO2 for 16 hrs. 2 hrs after the addition of the inhibitor in 100 μl of tissue culture media, the cells were stimulated with LPS (E coli strain 005:B5, Sigma) at a final concentration of 1 μg/ml and incubated at 37° C. in 5% CO2 for 6 hrs. TNF-α levels were measured from cell-free supernatants by sandwich ELISA (R&D Systems #QTA00B).

human whole blood = experiment: LPS-stimulation of human whole blood, TNF-α levels by ELISA; type: cell-based; details: Homo sapiens; LPS 100 ng/ml, 6 hrs; read-out: D—ester TNF-alpha inhibition (human whole blood), IC50
Protocol: Whole blood was taken by venous puncture using heparinised vacutainers (Becton Dickinson) and diluted in an equal volume of RPMI1640 tissue culture media (Sigma). 100 μl was plated in V-bottomed 96 well tissue culture treated plates. 2 hrs after the addition of the inhibitor in 100 μl of RPMI1640 media, the blood was stimulated with LPS (E coli strain 005:B5, Sigma) at a final concentration of 100 ng/ml and incubated at 37° C. in 5% CO2 for 6 hrs. TNF-α levels were measured from cell-free supernatants by sandwich ELISA (R&D Systems #QTA00B).

Plasma exposure in mice = type: in vivo; details: mouse, po 10 mg/kg, male CD1 mice
Protocol: The compounds were formulated in 8% DMSO, 92% 11.25% hydroxypropyl-β-cyclodextrin in water using the following procedure: the compounds were fully dissolved in 100% DMSO and then the hydroxypropyl-β-cyclodextrin solution added. The fine precipitate formed was re-dissolved by the addition of aqueous HCl and the pH adjusted to 4 with aqueous sodium hydroxide.
Each compound was administered orally at 10 mg/kg, in a total dose volume of 5 ml/kg, to male CD1 mice ([…]). Three mice were used for each time point. Blood samples were taken at the following time points: 5, 15, 30, 60, 120, 240 and 360 minutes, by terminal cardiac puncture, under halothane/isofluorane anaesthesia. Blood samples were collected into pre-chilled tubes containing NaF/EDTA and mixed. Samples were spun at 7-7.5×g for 2 minutes. The plasma was aspirated and frozen.
Plasma samples were prepared by precipitation of protein using three volumes of acetonitrile containing the internal standard. The supernatants were analysed by LCMS (Sciex API 3000, HP1100 binary pump, CTC PAL). The chromatography was based on an Acentis C8 (50×2.1 mm) column and a mobile phase of 5-95% acetonitrile in water/0.1% formic acid.
Exposure (AUC) was calculated from the plasma concentration versus time profile using PK Solutions 2.0 (Summit Research Services, Montrose, Colo.).

[1] = corresponding acid (hydrolysis product of the named ester) tested, read-out: B—acid enzyme assay (p38 kinase A (invitrogen)), IC50
[2] = ester tested, read-out: A—ester enzyme assay (p38 kinase A (invitrogen)), IC50

Sequence of p38 MAP Kinase a (Q16539 whole entry): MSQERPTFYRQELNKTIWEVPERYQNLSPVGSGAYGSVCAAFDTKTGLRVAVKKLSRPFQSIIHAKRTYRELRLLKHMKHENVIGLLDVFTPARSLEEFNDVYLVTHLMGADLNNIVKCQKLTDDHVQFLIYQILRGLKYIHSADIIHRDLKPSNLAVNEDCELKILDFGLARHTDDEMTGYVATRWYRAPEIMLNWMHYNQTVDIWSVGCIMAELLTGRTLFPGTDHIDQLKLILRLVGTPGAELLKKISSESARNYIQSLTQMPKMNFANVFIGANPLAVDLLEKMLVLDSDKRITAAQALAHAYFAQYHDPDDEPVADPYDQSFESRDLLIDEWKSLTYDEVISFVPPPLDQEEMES

Row | IC50 (p38 MAP Kinase a; [1]) [µM] | IC50 (p38 MAP Kinase a; [2]) [µM] | IC50 (THP-1 cells) [µM] | IC50 (human whole blood) [µM] | AUC(0-t) (Plasma exposure in mice) [ng·h/mL] | SMILES
1 | 0.001 | 0.12 | 0.003 | 0.191 | 75 | CC(C)C[C@H](NCCc1cc(F)c(-n2c(N)c(C(=O)c3ccc(F)cc3F)ccc2=O)c(F)c1)C(=O)OC(C)(C)C [tert-butyl N-(2-{4-[6-amino-5-(2,4-difluoro-benzoyl)-2-oxopyridin-1(2H)-yl]-3,5-difluorophenyl}ethyl)-L-leucinate]
2 | 0.001 | 0.012 | 0.0016 | 0.026 | 102 | C[C@H](NCCc1cc(F)c(-n2c(N)c(C(=O)c3ccc(F)cc3F)ccc2=O)c(F)c1)C(=O)OC(C)(C)C [tert-Butyl N-(2-{4-[6-amino-5-(2,4-difluorobenzoyl)-2-oxopyridin-1(2H)-yl]-3,5-difluorophenyl}ethyl)-L-alaninate]
3 | 0.001 | 0.231 | 0.0005 | 0.054 | 14 | CC(C)C[C@H](NCCc1cc(F)c(-n2c(N)c(C(=O)c3ccc(F)cc3F)ccc2=O)c(F)c1)C(=O)OC1CCCC1 [cyclopentyl N-(2-{4-[6-amino-5-(2,4-difluoro-benzoyl)-2-oxopyridin-1(2H)-yl]-3,5-difluoro-phenyl}ethyl)-L-leucinate]
4 | 0.058 | 0.33 | 0.0024 | 0.638 | – | CC(C)C[C@H](NCCc1ccc(-n2c(N)c(C(=O)c3ccc(F)cc3F)ccc2=O)cc1)C(=O)OC(C)(C)C [tert-Butyl N-[2-(4-{6-amino-5-[(2,4-difluoro-phenyl)carbonyl]-2-oxopyridin-1(2H)-yl}phenyl)ethyl]-L-leucinate]
